Laboratory results taken from the supplement of paper PMC10307832.

Assays:
Assay in all cases: relative viability (nuclei count vs DMSO), 5 days (fraction); higher = more cells survive
NCI-H520 = test system: NCI-H520
Procedure, shortened: (§1)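 The day after seeding in 1536-well plates, lung cancer cell lines were treated by pin tool with a single drug, or with a fixed anchor-drug dose together with five library-drug doses (not always all listed) in √10 steps. After 5 days, a combined fix-and-stain solution (final 0.05% Triton X-100, 1% formaldehyde, 1 ug/ml Hoechst) was added. Nuclei counted on 4× images gave relative viability as treated counts over vehicle counts, reported as the median of duplicate plates.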

HOP-62 = test system: HOP-62
Procedure, shortened: as §1

NCI-H23 = test system: NCI-H23
Procedure, shortened: as §1

NCI-H2170 = test system: NCI-H2170
Procedure, shortened: as §1

NCI-H2023 = test system: NCI-H2023
Procedure, shortened: as §1

NCI-H2347 = test system: NCI-H2347
Procedure, shortened: as §1

EMC-BAC-2 = test system: EMC-BAC-2
Procedure, shortened: as §1

NCI-H647 = test system: NCI-H647
Procedure, shortened: as §1

EPLC-272H = test system: EPLC-272H
Procedure, shortened: as §1

NCI-H2126 = test system: NCI-H2126
Procedure, shortened: as §1

NCI-H650 = test system: NCI-H650
Procedure, shortened: as §1

NCI-H1437 = test system: NCI-H1437
Procedure, shortened: as §1

NCI-H2405 = test system: NCI-H2405
Procedure, shortened: as §1

NCI-H2009 = test system: NCI-H2009
Procedure, shortened: as §1

HCC-44 = test system: HCC-44
Procedure, shortened: as §1

NCI-H460 = test system: NCI-H460
Procedure, shortened: as §1

LOU-NH91 = test system: LOU-NH91
Procedure, shortened: as §1

SW 1573 = test system: SW 1573
Procedure, shortened: as §1

NCI-H1793 = test system: NCI-H1793
Procedure, shortened: as §1

NCI-H727 = test system: NCI-H727
Procedure, shortened: as §1

Work on Cc1cnc(-c2cnc(NCCNc3ccc(C#N)cn3)nc2-c2ccc(Cl)cc2Cl)[nH]1 + CS(=O)(=O)CCNCc1ccc(-c2ccc3ncnc(Nc4ccc(OCc5cccc(F)c5)c(Cl)c4)c3c2)o1 [Lapatinib] (partner 2 µM) yielded a relative viability (NCI-H520; first compound 0.08 µM) of 0.962, a relative viability (NCI-H520; first compound 0.253 µM) of 0.823 and a relative viability (NCI-H520; first compound 0.8 µM) of 0.93. The relative viability (NCI-H520; first compound 2.53 µM) was 0.891, the relative viability (HOP-62; first compound 0.08 µM) was 1.01 and the relative viability (HOP-62; first compound 0.253 µM) was 0.902. The relative viability (HOP-62; first compound 0.8 µM) was 1.05, the relative viability (HOP-62; first compound 2.53 µM) was 1.04 and the relative viability (NCI-H23; first compound 0.08 µM) was 1.14. The relative viability (NCI-H23; first compound 0.253 µM) was 1.02, the relative viability (NCI-H23; first compound 0.8 µM) was 1.07 and the relative viability (NCI-H23; first compound 2.53 µM) was 1.11. The relative viability (NCI-H2170; first compound 0.08 µM) was 0.298, the relative viability (NCI-H2170; first compound 0.253 µM) was 0.262 and the relative viability (NCI-H2170; first compound 0.8 µM) was 0.279. It also gave a relative viability (NCI-H2170; first compound 2.53 µM) of 0.32, a relative viability (NCI-H2023; first compound 0.08 µM) of 1.23 and a relative viability (NCI-H2023; first compound 0.253 µM) of 0.431. It also gave a relative viability (NCI-H2023; first compound 0.8 µM) of 0.827, a relative viability (NCI-H2023; first compound 2.53 µM) of 0.913 and a relative viability (NCI-H2347; first compound 0.08 µM) of 0.862. The relative viability (NCI-H2347; first compound 0.253 µM) was 0.649, the relative viability (NCI-H2347; first compound 0.8 µM) was 1.06 and the relative viability (NCI-H2347; first compound 2.53 µM) was 1.02. The relative viability (EMC-BAC-2; first compound 0.08 µM) was 1.02, the relative viability (EMC-BAC-2; first compound 0.253 µM) was 0.808 and the relative viability (EMC-BAC-2; first compound 0.8 µM) was 0.887. It also gave a relative viability (EMC-BAC-2; first compound 2.53 µM) of 0.859, a relative viability (NCI-H647; first compound 0.08 µM) of 1.19 and a relative viability (NCI-H647; first compound 0.253 µM) of 0.838. For the same compound, the relative viability (NCI-H647; first compound 0.8 µM) was 1.02, the relative viability (NCI-H647; first compound 2.53 µM) was 0.936 and the relative viability (EPLC-272H; first compound 0.08 µM) was 1.08. The relative viability (EPLC-272H; first compound 0.253 µM) was 0.88, the relative viability (EPLC-272H; first compound 0.8 µM) was 0.599 and the relative viability (EPLC-272H; first compound 2.53 µM) was 0.946. It also gave a relative viability (NCI-H2126; first compound 0.08 µM) of 0.753, a relative viability (NCI-H2126; first compound 0.253 µM) of 0.728 and a relative viability (NCI-H2126; first compound 0.8 µM) of 0.786. It also gave a relative viability (NCI-H2126; first compound 2.53 µM) of 0.741, a relative viability (NCI-H650; first compound 0.08 µM) of 0.926 and a relative viability (NCI-H650; first compound 0.253 µM) of 1.12. It also gave a relative viability (NCI-H650; first compound 0.8 µM) of 0.478, a relative viability (NCI-H650; first compound 2.53 µM) of 0.789 and a relative viability (NCI-H1437; first compound 0.08 µM) of 0.848. For the same compound, the relative viability (NCI-H1437; first compound 0.253 µM) was 0.715, the relative viability (NCI-H1437; first compound 0.8 µM) was 0.805 and the relative viability (NCI-H1437; first compound 2.53 µM) was 0.793. It also gave a relative viability (NCI-H2405; first compound 0.08 µM) of 1.11, a relative viability (NCI-H2405; first compound 0.253 µM) of 1.01 and a relative viability (NCI-H2405; first compound 0.8 µM) of 0.741. For the same compound, the relative viability (NCI-H2405; first compound 2.53 µM) was 0.523, the relative viability (NCI-H2009; first compound 0.08 µM) was 0.991 and the relative viability (NCI-H2009; first compound 0.253 µM) was 0.522. The relative viability (NCI-H2009; first compound 0.8 µM) was 0.866, the relative viability (NCI-H2009; first compound 2.53 µM) was 0.905 and the relative viability (HCC-44; first compound 0.08 µM) was 0.99. It also gave a relative viability (HCC-44; first compound 0.253 µM) of 0.858, a relative viability (HCC-44; first compound 0.8 µM) of 0.989 and a relative viability (HCC-44; first compound 2.53 µM) of 1.06. For the same compound, the relative viability (NCI-H460; first compound 0.08 µM) was 0.943, the relative viability (NCI-H460; first compound 0.253 µM) was 0.826 and the relative viability (NCI-H460; first compound 0.8 µM) was 0.864. For the same compound, the relative viability (NCI-H460; first compound 2.53 µM) was 0.775, the relative viability (LOU-NH91; first compound 0.08 µM) was 0.811 and the relative viability (LOU-NH91; first compound 0.253 µM) was 0.738. The relative viability (LOU-NH91; first compound 0.8 µM) was 0.739, the relative viability (LOU-NH91; first compound 2.53 µM) was 0.866 and the relative viability (SW 1573; first compound 0.08 µM) was 1.02. It also gave a relative viability (SW 1573; first compound 0.253 µM) of 1.04, a relative viability (SW 1573; first compound 0.8 µM) of 1.1 and a relative viability (SW 1573; first compound 2.53 µM) of 1.02. The relative viability (NCI-H1793; first compound 0.08 µM) was 0.608, the relative viability (NCI-H1793; first compound 0.253 µM) was 0.678 and the relative viability (NCI-H1793; first compound 0.8 µM) was 0.721. It also gave a relative viability (NCI-H1793; first compound 2.53 µM) of 1.02, a relative viability (NCI-H727; first compound 0.08 µM) of 0.822 and a relative viability (NCI-H727; first compound 0.253 µM) of 0.882. The relative viability (NCI-H727; first compound 0.8 µM) was 0.765 and the relative viability (NCI-H727; first compound 2.53 µM) was 0.782.
